# “And” between values parts separate entries of the source, which are not always exact repeats. Identical values can stand only once.
# Experiments:
# N. gonorrhoeae = N. gonorrhoeae murine vaginal infection model, efficacy; assay type: in vivo, mouse
# Experimental: The N. gonorrhoeae female mouse vaginal model[45] was performed in accordance with the Guide for Care and Use of Laboratory Animals[75]. Animal rooms were maintained at a temperature range of 20–24 °C and humidity between 30% and 70%, with 12 h light/dark cycles. Ovariectomized BALB/c female mice (5–6 weeks, BioLASCO Taiwan Co., Ltd.) were treated with estradiol (0.23 mg/mouse) two days before infection and on the day of infection. Ovariectomized mice were used to avoid staging mice before treating them with estradiol. Beginning two days prior to infection and maintained until the end of the study, animals were treated twice daily with streptomycin (1.2 mg/mouse) and vancomycin (0.6 mg/mouse) each via intraperitoneal (IP) injection and received trimethoprim sulfate in the drinking water (0.4 mg/mL) to control vaginal microflora. Animals were anesthetised with pentobarbital (80 mg/kg), the vagina was rinsed with 50 mM HEPES (pH 7.4), and then inoculated with N. gonorrhoeae in pre-warmed PBS (0.02 mL/mouse containing ~1 × 10^5 CFU).
# Control groups received either a single IP injection of ceftriaxone or 5% dextrose (vehicle) twice daily. Animals were sacrificed via CO2 asphyxiation at either 2 h (baseline), 26 and/or 50 h post-infection. Vaginal lavage was performed twice with 200 µL GC broth containing 0.05% saponin to recover bacteria. Bacterial burden in the lavage fluids was determined by performing 10-fold serial dilutions and plating on chocolate agar plates. Four strains were assessed using the model; ATCC 700825 is naturally streptomycin-resistant, whereas AR Bank0179-15, AR Bank0181-17 and WHO X-07 are derivatives of AR Bank0179, AR Bank0181 and WHO X, respectively, that were engineered for streptomycin resistance for use in the model.
# S. aureus ATCC 29213 = assay: S. aureus neutropenic murine thigh infection model; assay type: in vivo, mouse; conditions: S. aureus ATCC 29213, daily dose, 300 µg/mL ceftriaxone
# Experimental: The S. aureus neutropenic murine thigh infection model was performed in accordance with the Guide for Care and Use of Laboratory Animals[75]. Animal rooms were maintained at a temperature range of 20–24 °C and humidity between 30% and 70%, with 12 h light/dark cycles. Female ICR mice (BioLASCO Taiwan Co., Ltd.) were rendered neutropenic via IP injection of cyclophosphamide four days before infection (150 mg/kg) and again one day before infection (100 mg/kg). Animals were anaesthetised with isoflurane (3–5%), then inoculated intramuscularly with S. aureus ATCC 29213 (~1 × 10^5 CFU/mouse). […] Animals were sacrificed via CO2 asphyxiation at either 2 h (baseline), 26 and/or 50 h post-infection. Thigh tissues were harvested and homogenised in 3 mL sterile PBS (pH 7.4). Bacterial burdens were determined by performing 10-fold serial dilutions and plating on nutrient agar plates.
# [1] = Data 4, N. gonorrhoeae WHO X-07, ovariectomized BALB/c, 5 mg/kg IP, QD, 24h, individual animals, 5 mg/kg
# [2] = Data 4, N. gonorrhoeae WHO X-07, ovariectomized BALB/c, 333.33 mg/kg IP, TID, 24h, individual animals
# [3] = Data 4, N. gonorrhoeae WHO X-07, ovariectomized BALB/c, 333.33 mg/kg IP, TID, 48h, individual animals, 333.33 mg/kg
# [4] = N. gonorrhoeae AR Bank0179-15, vaginal lavage, individual mice, Ceftriaxone 0.5 mg/kg IP, QD, 24h
# [5] = N. gonorrhoeae AR Bank0179-15, vaginal lavage, individual mice, Ceftriaxone 5 mg/kg IP, QD, 24h
# [6] = N. gonorrhoeae AR Bank0179-15, vaginal lavage, individual mice, Ceftriaxone 5 mg/kg IP, QD, 48h
# [7] = N. gonorrhoeae AR Bank0181-17, vaginal lavage, individual mice, Ceftriaxone 0.5 mg/kg IP, QD, 24h
# [8] = N. gonorrhoeae AR Bank0181-17, vaginal lavage, individual mice, Ceftriaxone 5 mg/kg IP, QD, 24h
# [9] = N. gonorrhoeae AR Bank0181-17, vaginal lavage, individual mice, Ceftriaxone 5 mg/kg IP, QD, 48h
# [10] = N. gonorrhoeae ATCC 700825, vaginal lavage, individual mice, Ceftriaxone 1 mg/kg IP, QD, 24h
# [11] = N. gonorrhoeae ATCC 700825, vaginal lavage, individual mice, Ceftriaxone 5 mg/kg IP, QD, 24h
# [12] = N. gonorrhoeae ATCC 700825, vaginal lavage, individual mice, Ceftriaxone 5 mg/kg IP, QD, 48h
smiles,measurement,setting,value
"CO/N=C(\C(=O)N[C@@H]1C(=O)N2C(C(=O)O)=C(CSc3nc(=O)c(=O)[nH]n3C)CS[C@H]12)c1csc(N)n1 [Ceftriaxone, reference compound]","Mean Diff. 0h vs. treatment, log10 CFU","N. gonorrhoeae; AR Bank0179-15, 0.5 µg/mL ceftriaxone, 24h",3.018
same,"Mean Diff. 0h vs. treatment, log10 CFU","N. gonorrhoeae; AR Bank0179-15, 5 µg/mL ceftriaxone, 24h",3.186
same,"Mean Diff. 0h vs. treatment, log10 CFU","N. gonorrhoeae; AR Bank0179-15, 5 µg/mL ceftriaxone, 48h",3.09
same,"Mean Diff. 0h vs. treatment, log10 CFU","N. gonorrhoeae; AR Bank0181-17, 0.5 µg/mL ceftriaxone, 24h",0.924
same,"Mean Diff. 0h vs. treatment, log10 CFU","N. gonorrhoeae; AR Bank0181-17, 5 µg/mL ceftriaxone, 24h",3.56
same,"Mean Diff. 0h vs. treatment, log10 CFU","N. gonorrhoeae; AR Bank0181-17, 5 µg/mL ceftriaxone, 48h",3.56
same,efficacy against ceftriaxone-susceptible strains,"N. gonorrhoeae; ATCC 700825, AR Bank0179-15, AR Bank0181-17",effective
same,"Mean Diff. 0h vs. treatment, log10 CFU","N. gonorrhoeae; ATCC 700825, 1 µg/mL ceftriaxone, 24h",2.882
same,"Mean Diff. 0h vs. treatment, log10 CFU","N. gonorrhoeae; ATCC 700825, 5 µg/mL ceftriaxone, 24h",3.022
same,"Mean Diff. 0h vs. treatment, log10 CFU","N. gonorrhoeae; ATCC 700825, 5 µg/mL ceftriaxone, 48h",3.082
same,CFU/mL lavage fluid,N. gonorrhoeae; [1],1450000 CFU/mL lavage fluid and 400000 CFU/mL lavage fluid and 1290000 CFU/mL lavage fluid and 480000 CFU/mL lavage fluid and 620000 CFU/mL lavage fluid
same,Log10(CFU/mL lavage fluid),N. gonorrhoeae; [1],6.16 Log10(CFU/mL lavage fluid) and 5.60 Log10(CFU/mL lavage fluid) and 6.11 Log10(CFU/mL lavage fluid) and 5.68 Log10(CFU/mL lavage fluid) and 5.79 Log10(CFU/mL lavage fluid)
same,CFU/mL lavage fluid,N. gonorrhoeae; [2],<5.00E+00 CFU/mL lavage fluid
same,Log10(CFU/mL lavage fluid),N. gonorrhoeae; [2],<0.70 Log10(CFU/mL lavage fluid)
same,CFU/mL lavage fluid,N. gonorrhoeae; [3],35 CFU/mL lavage fluid and <5.00E+00 CFU/mL lavage fluid
same,Log10(CFU/mL lavage fluid),N. gonorrhoeae; [3],1.54 Log10(CFU/mL lavage fluid) and <0.70 Log10(CFU/mL lavage fluid)
same,CFU/mL lavage fluid,N. gonorrhoeae; [4],5 CFU/mL and <5 CFU/mL and 35 CFU/mL
same,Log10(CFU/mL lavage fluid),N. gonorrhoeae; [4],0.7 Log10(CFU/mL lavage fluid) and <0.70 Log10(CFU/mL lavage fluid) and 1.54 Log10(CFU/mL lavage fluid)
same,CFU/mL lavage fluid,N. gonorrhoeae; [5],<5 CFU/mL
same,Log10(CFU/mL lavage fluid),N. gonorrhoeae; [5],<0.70 Log10(CFU/mL lavage fluid)
same,CFU/mL lavage fluid,N. gonorrhoeae; [6],5 CFU/mL and <5 CFU/mL and 15 CFU/mL
same,Log10(CFU/mL lavage fluid),N. gonorrhoeae; [6],0.7 Log10(CFU/mL lavage fluid) and <0.70 Log10(CFU/mL lavage fluid) and 1.18 Log10(CFU/mL lavage fluid)
same,CFU/mL lavage fluid,N. gonorrhoeae; [7],255 CFU/mL and 195 CFU/mL and 3900 CFU/mL and 37000 CFU/mL and 6600 CFU/mL
same,Log10(CFU/mL lavage fluid),N. gonorrhoeae; [7],2.41 Log10(CFU/mL lavage fluid) and 2.29 Log10(CFU/mL lavage fluid) and 3.59 Log10(CFU/mL lavage fluid) and 4.57 Log10(CFU/mL lavage fluid) and 3.82 Log10(CFU/mL lavage fluid)
same,CFU/mL lavage fluid,N. gonorrhoeae; [8],<5 CFU/mL
same,Log10(CFU/mL lavage fluid),N. gonorrhoeae; [8],<0.70 Log10(CFU/mL lavage fluid)
same,CFU/mL lavage fluid,N. gonorrhoeae; [9],<5 CFU/mL
same,Log10(CFU/mL lavage fluid),N. gonorrhoeae; [9],<0.70 Log10(CFU/mL lavage fluid)
same,CFU/mL lavage fluid,N. gonorrhoeae; [10],50 CFU/mL and 5 CFU/mL and <5 CFU/mL
same,Log10(CFU/mL lavage fluid),N. gonorrhoeae; [10],1.7 Log10(CFU/mL lavage fluid) and 0.7 Log10(CFU/mL lavage fluid) and <0.70 Log10(CFU/mL lavage fluid)
same,CFU/mL lavage fluid,N. gonorrhoeae; [11],<5 CFU/mL and 10 CFU/mL
same,Log10(CFU/mL lavage fluid),N. gonorrhoeae; [11],<0.70 Log10(CFU/mL lavage fluid) and 1 Log10(CFU/mL lavage fluid)
same,CFU/mL lavage fluid,N. gonorrhoeae; [12],<5 CFU/mL
same,Log10(CFU/mL lavage fluid),N. gonorrhoeae; [12],<0.70 Log10(CFU/mL lavage fluid)
same,"Mean Diff. 0h vs. treatment, log10 CFU","N. gonorrhoeae; WHO X-07, 5 µg/mL ceftriaxone, 24h",-1.846
same,"Mean Diff. 0h vs. treatment, log10 CFU","N. gonorrhoeae; WHO X-07, 1000 µg/mL ceftriaxone, 24h",3.322
same,"Mean Diff. 0h vs. treatment, log10 CFU","N. gonorrhoeae; WHO X-07, 1000 µg/mL ceftriaxone, 48h",3.154
same,efficacy against ceftriaxone-resistant strain WHO X-07,N. gonorrhoeae; at doses equivalent to those effective against susceptible strains,ineffective
same,increase in log10CFU/mL at 24 h,N. gonorrhoeae; dose with simulated fT > MIC of 2 h,1.9 log10CFU/mL
same,reduction in log10CFU/mL at 24 h,N. gonorrhoeae; doses with simulated fT > MIC of 12 to 18 h,2.0 log10CFU/mL
same,reduction in log10CFU/mL at 24 h,N. gonorrhoeae; doses with simulated fT > MIC of >24 h,3.3 log10CFU/mL
same,reduction in log10CFU/mL at 24 h,N. gonorrhoeae; doses with simulated fT > MIC of ≥22 to 24 h,2.9 log10CFU/mL
same,"Mean Diff. 0h vs. treatment, log10 CFU",S. aureus ATCC 29213; 24h,1.71
same,"Mean Diff. 0h vs. treatment, log10 CFU",S. aureus ATCC 29213; 48h,2.684

# Reference: publication PMC12446476 (Nature Communications, 2025)
